The source of these data is patent US9000022B2 (Exelixis Patent Company LLC, priority 2005, dated 2015).

The test system of the assay is LXRα and/or LXRβ. Description: Co-transfection assay (LXRE luciferase reporter, CV-1 cells). It counts as cell-based, human. Conditions: tested as described in Example 33; IC50 or EC50 for LXRα and/or LXRβ, isoform not specified; read-out: activity (IC50 or EC50 for LXR). From the text: To measure the ability of compounds to activate or inhibit the transcriptional activity of LXR in a cell based assay, the co-transfection assay was used. It has been shown that LXR functions as a heterodimer with RXR. For the co-transfection assay, expression plasmids for LXR and RXR are introduced via transient transfection into mammalian cells along with a luciferase reporter plasmid that contains one copy of a DNA sequence that is bound by LXR-RXR heterodimers (LXRE; Willy, P. et. al. 1995). Treatment of transfected cells with an LXR agonist increases the transcriptional activity of LXR, which is measured by an increase in luciferase activity.
CV-1 African Green Monkey Kidney Cells Co-transfection expression plasmids, comprising full-length LXRα (pCMX-h LXRα, LXRβ (pCMX-hLXRβ), or RXRα (pCMX-RXR), reporter plasmid (LXREx1-Tk-Luciferase), and control (pCMX-Galactosidase expression vector) (Willey et al. Genes & Development 9 1033-1045 (1995)). Transfection reagent such as FuGENE6 (Roche). 1× Cell lysis buffer (1% Triton X 100 (J T Baker X200-07), 10% Glycerol (J T Baker M778-07), 5 mM Ditriotreitol (Quantum Bioprobe DTT03; add fresh before lysing), 1 mM EGTA (Ethylene Glycol-bis(B-Amino ethyl ether)-N,N,N′,N′-Tetracetic Acid) (Sigma E-4378), 25 mM Tricine (ICN 807420) pH 7.8) 1× Luciferase assay buffer (pH at 7.8) (0.73 mM ATP, 22.3 mM Tricine, 0.11 mM EDTA, 33.3 mM DTT) 1× Luciferrin/CoA (11 mM Luciferin, 3.05 mM Coenzyme A, 10 mM HEPES)
CV-1 cells were prepared 24 hours prior to the experiment by plating them into T-175 flasks or 500 cm^2 dishes in order to achieve 70-80% confluency on the day of the transfection. The number of cells to be transfected was determined by the number of plates to be screened. Each 384 well plate requires 1.92×10^6 cells or 5000 cells per well. DNA Transfection Reagent was prepared by mixing the required plasmid DNAs with a cationic lipid transfection reagent FuGENE6 (Roche) by following the instructions provided with the reagents. Optimal DNA amounts were determined empirically per cell line and size of vessel to be transfected. 10-12 mL of media was added to the DNA Transfection Reagent and this mixture was added to the cells after aspirating media from the T175 cm^2 flask. Cells were then incubated at least 5 hours at 37° C. to prepare screening cells.
Luciferase assay reagent was prepared by combining before use (per 10 mL): 10 mL 1× Luciferase assay buffer; 0.54 mL of 1× Luciferrin/CoA; 0.54 mL of 0.2 M Magnesium sulfate
Assay plates were prepared by dispensing 5 μL, of compound per well of a 384 well plate to achieve final compound concentration of 10 μM and no more than 1% DMSO. Media was removed from the screening cells, the cells trypsinized, harvested cells by centrifugation, counted, and plated at a density of approximately 5000 cells per well in the 384 well assay plate prepared above in a volume of about 45 μL. Assay plates containing both compounds and screening cells (50 μL in total volume) were incubated for 20 hours at 37° C.
After incubation with compounds, media was removed from the cells and lysis buffer (30 μL/well) added. After 30 minutes at ambient temperature, luciferase assay buffer (30 μL/well) was added and the assay plates read on a luminometer (PE Biosystems Northstar reader with on-board injectors, or equivalent). Plates were read immediately after addition of luciferase assay buffer.
The LXR/LNRE co-transfection assay can be used to establish the EC50/IC50 values for potency and percent activity or inhibition for efficacy. Efficacy defines the activity of a compound relative to a high control ((N-(3-((4-fluorophenyl)-(naphthalene-2-sulfonyl)amino)propyl)-2,2-dimethylpropionamide)) or a low control (DMSO/vehicle). The dose response curves are generated from an 8 point curve with concentrations differing by ½ LOG units. Each point represents the average of 4 wells of data from a 384 well plate. […]
(In a reporter assay the amount or activity of a reporter protein is the signal.)

The structures appear in SMILES notation.

In the case of `CC(C)(O)c1cn(-c2ccc(-c3cccc(S(C)(=O)=O)c3)cc2Cl)c(-c2nccc3ccccc23)n1` [Example 33, 2-(1-(3-chloro-3′-(methyl-sulfonyl)biphenyl-4-yl)-2-(isoquinolin-1-yl)-1H-imidazol-4-yl)propan-2-ol], the IC50 or EC50 (potency, activation or inhibition) was less than 1000 nM.
With `CCS(=O)(=O)c1cccc(-c2ccc(-n3cc(C(C)(C)O)nc3-c3nccc4ccccc34)c(Cl)c2)c1` [Example 34, 2-(1-(3-chloro-3′-(ethyl-sulfonyl)biphenyl-4-yl)-2-(isoquinolin-1-yl)-1H-imidazol-4-yl)propan-2-ol] the figure was less than 1000 nM; with `Cc1cc(-c2cccc(S(C)(=O)=O)c2)ccc1-n1cc(C(C)(C)O)nc1-c1cccc2cnccc12` [Example 35, 2-(2-(isoquinolin-5-yl)-1-(3-methyl-3′-(methylsulfonyl)biphenyl-4-yl)-1H-imidazol-4-yl)propan-2-ol], 1000 to 10000 nM.
With `CCS(=O)(=O)c1cccc(-c2ccc(-n3cc(C(C)(C)O)nc3-c3cccc4cnccc34)c(C)c2)c1` [Example 36, 2-(1-(3′-(ethylsulfonyl)-3-methylbiphenyl-4-yl)-2-(isoquinolin-5-yl)-1H-imidazol-4-yl)propan-2-ol] the figure was 1000 to 10000 nM; with `CC(C)(O)c1cn(-c2ccc(-c3cccc(S(C)(=O)=O)c3)cc2)c(-c2cnccc2C(F)(F)F)n1` [Example 37, 2-(1-(3′-(methylsulfonyl)biphenyl-4-yl)-2-(4-(trifluoromethyl)pyridin-3-yl)-1H-imidazol-4-yl)propan-2-ol], more than 10000 nM.
For the compound `CCS(=O)(=O)c1cccc(-c2ccc(-n3cc(C(C)(C)O)nc3-c3cnccc3C(F)(F)F)cc2)c1` [Example 38, 2-(1-(3′-(ethylsulfonyl)biphenyl-4-yl)-2-(4-(trifluoromethyl)pyridin-3-yl)-1H-imidazol-4-yl)propan-2-ol], the IC50 or EC50 (potency, activation or inhibition) is more than 10000 nM.
With `Cc1cc(-c2cccc(S(C)(=O)=O)c2)ccc1-n1cc(C(C)(C)O)nc1-c1cccs1` [Example 41] the figure was 1000 to 10000 nM; with `Cc1cc(-c2cccc(S(C)(=O)=O)c2)ccc1-n1cc(C(C)(C)O)nc1-c1ccc(C)n1C` [Example 42, 2-(2-(1,5-dimethyl-1H-pyrrol-2-yl)-1-(3-methyl-3′-(methylsulfonyl)biphenyl-4-yl)-1H-imidazol-4-yl)propan-2-ol], less than 1000 nM.
As to `CC(C)(O)c1cn(-c2c(Cl)cccc2Cl)c(-c2ccc(-c3cccc(S(C)(=O)=O)c3)s2)n1` [Example 44, 2-(1-(2,6-dichlorophenyl)-2-(5-(3-(methylsulfonyl)phenyl)thiophen-2-yl)-1H-imidazol-4-yl)propan-2-ol], the IC50 or EC50 (potency, activation or inhibition) lay within 1000 to 10000 nM.
On to `CCS(=O)(=O)c1cccc(-c2ccc(-c3nc(C(C)(C)O)cn3-c3c(Cl)cccc3Cl)s2)c1` [Example 45, 2-(1-(2,6-dichlorophenyl)-2-(5-(3-(ethylsulfonyl)phenyl)thiophen-2-yl)-1H-imidazol-4-yl)propan-2-ol], for which the IC50 or EC50 (potency, activation or inhibition) was 1000 to 10000 nM.
With `CCS(=O)(=O)c1cccc(-c2ccc(-c3nc(C(C)(C)O)cn3-c3c(Cl)cccc3Cl)c(C)c2)c1` [Example 58, 2-(1-(2,6-dichlorophenyl)-2-(3′-(ethylsulfonyl)-3-methylbiphenyl-4-yl)-1H-imidazol-4-yl)propan-2-ol] the figure was less than 1000 nM.
Turning to `Cc1cc(-c2cccc(S(C)(=O)=O)c2)ccc1-c1nc(C(C)(C)O)cn1-c1c(C)cccc1C(C)C` [Example 59, 2-(1-(2-isopropyl-6-methylphenyl)-2-(3-methyl-3′-(methylsulfonyl)biphenyl-4-yl)-1H-imidazol-4-yl)propan-2-ol], the IC50 or EC50 (potency, activation or inhibition) is less than 1000 nM.
On to `CCS(=O)(=O)c1cccc(-c2ccc(-c3nc(C(C)(C)O)cn3-c3c(C)cccc3C(C)C)c(C)c2)c1` [Example 60, 2-(2-(3′-(ethylsulfonyl)-3-methyl-biphenyl-4-yl)-1-(2-isopropyl-6-methylphenyl)-1H-imidazol-4-yl)propan-2-ol], for which the IC50 or EC50 (potency, activation or inhibition) is less than 1000 nM.
With `Cc1cc(-c2cccc(S(C)(=O)=O)c2)ccc1-c1nc(C(C)(C)O)cn1-c1ccccc1C(C)C` [Example 61, 2-(1-(2-isopropylphenyl)-2-(3-methyl-3′-(methylsulfonyl)biphenyl-4-yl)-1H-imidazol-4-yl)propan-2-ol] the figure was less than 1000 nM; with `CCS(=O)(=O)c1cccc(-c2ccc(-c3nc(C(C)(C)O)cn3-c3ccccc3C(C)C)c(C)c2)c1` [Example 62, 2-(2-(3′-(ethylsulfonyl)-3-methyl-biphenyl-4-yl)-1-(2-isopropylphenyl)-1H-imidazol-4-yl)propan-2-ol], less than 1000 nM.
With `CC(C)(O)c1cn(-c2c(Cl)cccc2Cl)c(-c2ccc(-c3cccc(S(C)(=O)=O)c3)cc2)n1` [Example 63, 2-(1-(2,6-dichlorophenyl)-2-(3′-(methylsulfonyl)biphenyl-4-yl)-1H-imidazol-4-yl)propan-2-ol] the figure was less than 1000 nM; with `CCS(=O)(=O)c1cccc(-c2ccc(-c3nc(C(C)(C)O)cn3-c3c(Cl)cccc3Cl)cc2)c1` [Example 64, 2-(1-(2,6-dichlorophenyl)-2-(3′-(ethylsulfonyl)biphenyl-4-yl)-1H-imidazol-4-yl)propan-2-ol], less than 1000 nM.
With `CC(C)(O)c1cn(-c2c(Cl)cccc2Cl)c(-c2ccc(-c3cccc(S(C)(=O)=O)c3)cc2Cl)n1` [Example 65, 2-(2-(3-chloro-3′-(methyl-sulfonyl)biphenyl-4-yl)-1-(2,6-dichlorophenyl)-1H-imidazol-4-yl)propan-2-ol] the figure was less than 1000 nM; with `CCS(=O)(=O)c1cccc(-c2ccc(-c3nc(C(C)(C)O)cn3-c3c(Cl)cccc3Cl)c(Cl)c2)c1` [Example 66, 2-(2-(3-chloro-3′-(ethyl-sulfonyl)biphenyl-4-yl)-1-(2,6-dichlorophenyl)-1H-imidazol-4-yl)propan-2-ol], less than 1000 nM; with `CC(O)(c1cn(-c2ccc(-c3cccc(S(C)(=O)=O)c3)cc2)c(-c2ccccc2C(F)(F)F)n1)C(F)(F)F` (centres unmarked) [Example 67], less than 1000 nM.
For the compound `CCOC(=O)c1cn(-c2ccc(-c3cccc(S(C)(=O)=O)c3)cc2Cl)c(-c2c(Cl)cccc2Cl)n1` [Example 68, ethyl 1-(3-chloro-3′-(methyl-sulfonyl)biphenyl-4-yl)-2-(2,6-dichlorophenyl)-1H-imidazole-4-carboxylate], the IC50 or EC50 (potency, activation or inhibition) is less than 1000 nM.
As for `CC(=O)c1cn(-c2ccc(-c3cccc(S(C)(=O)=O)c3)cc2)c(-c2c(Cl)cccc2Cl)n1` [Example 69, 1-(2-(2,6-dichlorophenyl)-1-(3′-(methylsulfonyl)biphenyl-4-yl)-1H-imidazol-4-yl)ethanone], the IC50 or EC50 (potency, activation or inhibition) is less than 1000 nM.
With `C/C(=N\O)c1cn(-c2ccc(-c3cccc(S(C)(=O)=O)c3)cc2)c(-c2c(Cl)cccc2Cl)n1` [Example 70, (E)-1-(2-(2,6-dichlorophenyl)-1-(3′-(methylsulfonyl)biphenyl-4-yl)-1H-imidazol-4-yl)ethanone oxime] the figure was less than 1000 nM.
